Several values for one entry are separate records, joined by “and”; a condition that tells them apart may be missing. Identical values can stand only once. Inconclusive results are not listed. Activity calls are given as the source filed them.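 How the source made its calls: active means compounds whose fitted half-maximal concentration stays within ten times the top tested dose in every test run; inconclusive means runs disagree, or a flat partial drop or poor fit; inactive means every run inactive, including flat curves and signal rises.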

Serine/threonine-protein kinase 33 (Homo sapiens), sequence (Q9BYT3 whole entry, looked up): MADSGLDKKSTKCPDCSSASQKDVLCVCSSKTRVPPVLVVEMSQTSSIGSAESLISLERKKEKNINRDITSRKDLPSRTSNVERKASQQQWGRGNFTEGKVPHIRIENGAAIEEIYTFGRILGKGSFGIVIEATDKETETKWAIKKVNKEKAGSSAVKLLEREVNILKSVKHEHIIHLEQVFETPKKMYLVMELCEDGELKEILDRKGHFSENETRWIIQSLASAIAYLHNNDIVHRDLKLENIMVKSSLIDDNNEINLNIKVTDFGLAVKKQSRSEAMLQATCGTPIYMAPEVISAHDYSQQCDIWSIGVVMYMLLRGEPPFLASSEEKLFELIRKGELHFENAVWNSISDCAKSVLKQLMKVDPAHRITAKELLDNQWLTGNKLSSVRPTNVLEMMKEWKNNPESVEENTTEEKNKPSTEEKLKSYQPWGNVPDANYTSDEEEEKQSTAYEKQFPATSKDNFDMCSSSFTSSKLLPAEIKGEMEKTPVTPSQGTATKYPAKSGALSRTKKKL

The first assay concerns the target Serine/threonine-protein kinase 33 (Homo sapiens) (UniProt Q9BYT3). Nature of the assay: STK33 kinase inhibitors, potency, dose response, biochemical, ADP-Glo luminescence, dry powder, set 2 (AID 588480). The note with it: purified STK33, MBP phosphorylation.
Regarding `O=C(Nc1ccccc1-c1nc2ccccc2[nH]c1=O)c1ccc(F)cc1`, the AC50 is 0.152 µM.
Still for that read-out and setting: in the case of `COc1ccc(C(=O)Nc2ccccc2-c2nc3ccccc3[nH]c2=O)cc1` it was 0.977 µM; in that of `O=C(Nc1ccccc1-c1nc2ccccc2[nH]c1=O)c1cccnc1`, 0.582 µM; in that of `O=C(Nc1ccccc1-c1nc2ccccc2[nH]c1=O)c1cccc(Cl)c1`, 0.709 µM.
With `COc1cc(/C=C2\SC(=Nc3ccccc3OC)NC2=O)ccc1O`, the AC50 was 0.25 µM and 0.321 µM.
The same measure, in the same setting: with `O=C(Nc1ccccc1-c1nc2ccccc2[nH]c1=O)c1cc2ccccc2s1` the figure was 8.51 µM.
Take `O=C(Nc1ccccc1-c1nc2ccccc2[nH]c1=O)c1ccncc1`: the AC50 was 7.69 µM.
Consider `O=C1NC(=NCc2ccccc2)S/C1=C/c1ccc(O)cc1`, for which the AC50 is 0.245 µM.
Still for that read-out and setting: with `COc1ccccc1N=C1NC(=O)/C(=C/c2ccc3c(c2)OCO3)S1` the figure was 5.41 µM; with `COc1cc(/C=C2\SC(N)=NC2=O)ccc1O`, 0.466 µM.
On the same count and under the same terms, with `COc1cc(/C=C2\SC(=Nc3ccccc3OC)NC2=O)ccc1F` the figure was 9.91 µM; with `COc1ccccc1N=C1NC(=O)/C(=C/c2ccc(O)cc2)S1`, 0.911 µM; with `COc1ccccc1N=C1NC(=O)/C(=C/c2ccc3c(c2)OCCO3)S1`, 1.28 µM.
With `O=C(Nc1ccccc1-c1nc2ccccc2[nH]c1=O)c1cccc(F)c1`, the AC50 was 2.43 µM.
Still for that read-out and setting: with `O=C(Nc1ccccc1-c1nc2ccccc2[nH]c1=O)c1cccs1` the figure was 0.285 µM and 0.308 µM; with `O=C(Nc1ccccc1-c1nc2ccccc2[nH]c1=O)c1ccccn1`, 0.076 µM; with `COc1ccc(/C=C2\SC(=Nc3ccccc3OC)NC2=O)cc1`, 2.25 µM.

The assay is the same for the next values; noted with them: purified STK33, MBP phosphorylation, at 10 µM (top of the series).
Take `COc1ccccc1Nc1nc(O)c(/C=C2/C=c3ccccc3=N2)s1`: the “activity change, negative = inhibition” value was “inactive”.
Still for that read-out and setting: with `COc1ccccc1N=C1NC(=O)/C(=C/C2CCCCC2)S1` the entry was “inactive”; with `COc1ccccc1N=C1NC(=O)/C(=C/c2ccc(OC(F)(F)F)cc2)S1`, “inactive”; with `COc1ccccc1/C=C1\SC(=Nc2ccccc2OC)NC1=O`, “inactive”.
`COc1ccccc1N=C1NC(=O)/C(=C/c2ccccn2)S1`: the “activity change, negative = inhibition” value is “inactive”.
In the case of `O=C(Nc1ccccc1-c1nc2ccccc2[nH]c1=O)C1CCCCC1`, the “activity change, negative = inhibition” value is “inactive”.
On the same count and under the same terms, in the case of `COc1ccccc1N=C1NC(=O)/C(=C/c2cccn2C)S1` it was “inactive”; in that of `COc1ccccc1N=C1NC(=O)CS1`, “inactive”; in that of `COc1ccccc1N=C1NC(=O)/C(=C/c2cccc(F)c2)S1`, “inactive”.
As for `COc1ccccc1N=C1NC(=O)/C(=C/c2cc(C)on2)S1`, the “activity change, negative = inhibition” value was “inactive”.
`COc1ccccc1N=C1NC(=O)/C(=C/C(C)C)S1`: the “activity change, negative = inhibition” value is “inactive”.
Consider `O=c1[nH]c2ccccc2nc1-c1ccccc1NCc1cccs1`, for which the “activity change, negative = inhibition” value was “inactive”.
Same read-out and setting: in the case of `Nc1ccccc1-c1nc2ccccc2[nH]c1=O` it was “inactive”; in that of `COc1ccccc1N=C1NC(=O)/C(=C/c2cccc(Cl)c2)S1`, “inactive”.

Values taken from PubChem BioAssay AID588480 (Broad Institute, 2011).
